We go through 31 molecules from patent publication US8633204B2 (Pfizer Inc., priority 2006, dated 2014).

pIC50: −log10 of the molar value.

Assay [1] concerns PI3-K in BT20 cells (phosphorylation of AKT at serine 473). The assay is described as follows: PI3-Kα Cellular Assay (AKT Ser473 phosphorylation ELISA in BT20 cells). The assay is classed as cell-based, human. Conditions: Homo sapiens, BT-20, pAKT Ser473 ELISA, 1 hour incubation. In outline:
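Cells seeded overnight in 0.5% FBS, then exposed 1 h at 37 °C to an 11-concentration 1:3 dilution series, in duplicate.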

In the next assay the target is PI3-Kα (Mus musculus (Mouse), UniProt P42337). The assay is described as follows: PI3-Kα Biochemical Assay (fluorescence polarization kinase assay). The essentials: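 Co-expressed mouse p110/p85 PI3-Kα (4 nM stock) acting on PI(4,5)P2 (60 μM stock) with ATP/MgCl2 in HEPES pH 7.4 buffer, 35 min at room temperature, then EDTA stop. PI(3,4,5)P3 product detected by displacement of TAMRA-PIP3 from Grip1 PH domain (FP, 535/580 nm). IC50 from sigmoidal fit of % inhibition.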
PI3-Kα, sequence (P42337 whole entry, the tested form may be a part): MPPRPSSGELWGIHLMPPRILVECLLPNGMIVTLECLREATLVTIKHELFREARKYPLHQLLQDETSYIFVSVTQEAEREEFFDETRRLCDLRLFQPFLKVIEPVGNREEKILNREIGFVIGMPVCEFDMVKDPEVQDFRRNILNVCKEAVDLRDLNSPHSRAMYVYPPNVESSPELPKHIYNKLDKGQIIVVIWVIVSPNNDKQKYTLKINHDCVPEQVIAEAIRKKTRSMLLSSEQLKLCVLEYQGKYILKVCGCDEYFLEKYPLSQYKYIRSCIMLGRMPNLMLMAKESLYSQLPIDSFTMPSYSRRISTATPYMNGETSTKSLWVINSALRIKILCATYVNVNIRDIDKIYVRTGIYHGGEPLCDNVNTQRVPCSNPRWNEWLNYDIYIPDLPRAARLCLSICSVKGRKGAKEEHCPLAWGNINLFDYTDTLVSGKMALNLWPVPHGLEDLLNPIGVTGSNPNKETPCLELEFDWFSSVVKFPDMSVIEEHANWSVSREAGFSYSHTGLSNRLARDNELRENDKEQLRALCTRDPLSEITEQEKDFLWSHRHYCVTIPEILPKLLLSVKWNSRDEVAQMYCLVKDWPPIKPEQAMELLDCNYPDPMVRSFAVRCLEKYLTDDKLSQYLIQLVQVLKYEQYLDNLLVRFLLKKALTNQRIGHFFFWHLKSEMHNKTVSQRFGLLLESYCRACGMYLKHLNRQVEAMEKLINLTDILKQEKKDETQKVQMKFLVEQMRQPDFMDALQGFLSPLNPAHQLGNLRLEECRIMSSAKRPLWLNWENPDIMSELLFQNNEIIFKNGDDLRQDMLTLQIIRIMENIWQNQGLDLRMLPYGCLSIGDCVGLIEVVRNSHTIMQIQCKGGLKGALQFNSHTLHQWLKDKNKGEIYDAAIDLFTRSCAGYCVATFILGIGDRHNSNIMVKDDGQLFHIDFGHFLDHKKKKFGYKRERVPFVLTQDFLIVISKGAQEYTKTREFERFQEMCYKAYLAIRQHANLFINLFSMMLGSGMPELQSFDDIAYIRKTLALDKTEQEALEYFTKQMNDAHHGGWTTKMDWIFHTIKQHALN
PI3-Kα, sequence (P26450 whole entry partner, the tested form may be a part): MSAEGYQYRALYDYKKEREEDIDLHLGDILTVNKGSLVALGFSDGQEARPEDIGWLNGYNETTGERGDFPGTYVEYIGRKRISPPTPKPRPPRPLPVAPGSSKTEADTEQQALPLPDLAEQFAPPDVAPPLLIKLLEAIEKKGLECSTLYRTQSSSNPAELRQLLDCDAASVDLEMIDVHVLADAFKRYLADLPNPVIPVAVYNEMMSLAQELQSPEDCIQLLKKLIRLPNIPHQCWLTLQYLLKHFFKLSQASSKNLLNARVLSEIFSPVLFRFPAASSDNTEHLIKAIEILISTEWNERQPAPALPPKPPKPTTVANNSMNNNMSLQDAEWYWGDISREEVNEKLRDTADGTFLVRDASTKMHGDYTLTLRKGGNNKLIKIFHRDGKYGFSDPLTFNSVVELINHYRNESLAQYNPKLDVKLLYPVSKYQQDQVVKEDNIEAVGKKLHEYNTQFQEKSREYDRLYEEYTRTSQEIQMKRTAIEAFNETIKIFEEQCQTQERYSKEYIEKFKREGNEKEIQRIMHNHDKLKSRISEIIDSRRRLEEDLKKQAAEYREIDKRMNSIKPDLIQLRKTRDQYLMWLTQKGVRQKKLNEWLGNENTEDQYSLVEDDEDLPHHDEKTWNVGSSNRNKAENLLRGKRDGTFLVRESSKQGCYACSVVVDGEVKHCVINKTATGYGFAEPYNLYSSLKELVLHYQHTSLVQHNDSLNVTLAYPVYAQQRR

As to `Cc1nc(N)nc2c1cc(-c1cnc3ccccc3c1)c(=O)n2CC(C)(C)O` [Compound 173, 2-amino-8-(2-hydroxy-2-methylpropyl)-4-methyl-6-quinolin-3-ylpyrido[2,3-d]pyrimidin-7(8H)-one], the pIC50 is 6.49 in assay [1] and 6.57 at PI3-Kα.

Consider `COc1ccc(-c2cc3c(C)nc(N)nc3n(C3CCC(=O)CC3)c2=O)cn1` [Compound 175, 2-amino-6-(6-methoxypyridin-3-yl)-4-methyl-8-(4-oxocyclohexyl)pyrido[2,3-d]pyrimidin-7(8H)-one], for which the values for the pIC50 (in assay [1]; against PI3-Kα) were 7.71 and 8.37, respectively.

For `CO[C@H]1CC[C@H](n2c(=O)c(Br)cc3c(C)nc(N)nc32)CC1` [Compound 178], the pIC50 in assay [1] was 7.19; at PI3-Kα, 7.51.

For `COc1ccc(-c2cc3c(C)nc(N)nc3n([C@H]3CC[C@H](OC)CC3)c2=O)cn1` [Compound 179, 2-Amino-8-(trans-4-methoxycyclohexyl)-6-(6-methoxypyridin-3-yl)-4-methylpyrido[2,3-d]pyrimidin-7(8H)-one], the pIC50 is 8.13 in assay [1] and 8.41 at PI3-Kα.

As for `CO[C@H]1CC[C@H](n2c(=O)c(-c3ccc(N(C)C)nc3)cc3c(C)nc(N)nc32)CC1` [Compound 182, 2-amino-6-[6-(dimethylamino)pyridin-3-yl]-8-(trans-4-methoxycyclohexyl)-4-methylpyrido[2,3-d]pyrimidin-7(8H)-one], the pIC50 in assay [1] is 8.00; on PI3-Kα, 8.21.

With `Cc1nc(N)nc2c1cc(Br)c(=O)n2C1CCC(=O)CC1` [Compound 184, 2-amino-6-bromo-4-methyl-8-(4-oxocyclohexyl)pyrido[2,3-d]pyrimidin-7(8H)-one], the pIC50 in assay [1] was 6.68; against PI3-Kα, 6.96.

For `Cc1nc(N)nc2c1cc(-c1cn[nH]c1)c(=O)n2C1CCC(C)(O)CC1` (centres unmarked) [Compound 185, 2-amino-8-(4-hydroxy-4-methylcyclohexyl)-4-methyl-6-(1H-pyrazol-4-yl)pyrido[2,3-d]pyrimidin-7(8H)-one], the results for the pIC50 (in assay [1]; on PI3-Kα) were 7.82 and 7.74, respectively.

For the molecule `Cc1nc(N)nc2c1cc(-c1cc[nH]n1)c(=O)n2[C@H]1CC[C@H](O)CC1` [Compound 186, 2-Amino-8-((trans)-4-hydroxycyclohexyl)-4-methyl-6-(1H-pyrazol-3-yl)pyrido[2,3-d]pyrimidin-7(8H)-one], the pIC50 in assay [1] was 7.60; on PI3-Kα, 8.00.

As to `CO[C@H]1CC[C@H](n2c(=O)c(-c3cc[nH]n3)cc3c(C)nc(N)nc32)CC1` [Compound 187, 2-amino-8-(trans-4-methoxycyclohexyl)-4-methyl-6-(1H-pyrazol-3-yl)pyrido[2,3-d]pyrimidin-7(8H)-one], the pIC50 in assay [1] was 7.76; against PI3-Kα, 8.02.

In the case of `Cc1nc(N)nc2c1cc(-c1ccc(OC(C)C)nc1)c(=O)n2[C@H]1CC[C@H](O)CC1` [Compound 188, 2-amino-8(trans-4-hydroxycyclohexyl)-6-(6-isopropoxypyridin-3-yl)-4-methylpyrido[2,3-d]pyrimidin-7(8H)-one], the pIC50 is 7.14 in assay [1] and 8.03 against PI3-Kα.

Regarding `CCOc1ccc(-c2cc3c(C)nc(N)nc3n([C@H]3CC[C@H](O)CC3)c2=O)cn1` [Compound 189, 2-amino-6-(6-ethoxypyridin-3-yl)-8-(trans-4-hydroxycyclohexyl)-4-methylpyrido[2,3-d]pyrimidin-7(8H)-one], the pIC50 in assay [1] is 7.67; at PI3-Kα, 8.57.

With `Cc1nc(N)nc2c1cc(-c1ccc(C#N)nc1)c(=O)n2[C@H]1CC[C@H](O)CC1` [Compound 190, 5-[2-amino-8-(trans-4-hydroxycyclohexyl)-4-methyl-7-oxo-7,8-dihydropyrido[2,3-d]pyrimidin-6-yl]pyridine-2-carbonitrile], the pIC50 in assay [1] is 5.57; against PI3-Kα, 6.33.

As for `Cc1nc(N)nc2c1cc(-c1cnn(C(=O)OC(C)(C)C)c1)c(=O)n2N1CCCC1` [Compound 192, Tert-butyl-4-(2-amino-4-methyl-7-oxo-8-(pyrrolidin-1-yl)-7,8-dihydropyrido[2,3-d]pyrimidin-6-yl)-1H-pyrazole-1-carboxylate], the pIC50 is 8.29 in assay [1] and 7.03 against PI3-Kα.

On to `Cc1nc(N)nc2c1cc(-c1cn[nH]c1)c(=O)n2CC(F)(F)F` [Compound 197, 2-amino-4-methyl-6-(1H-pyrazol-4-yl)-8-(2,2,2-trifluoroethyl)pyrido[2,3-d]pyrididin-7(8H)-one], for which the negative logarithm of the IC50 (pIC50) in assay [1] was 6.63; against PI3-Kα it was 6.73.

With `COc1ccc(-c2cc3c(C)nc(N)nc3n(CC(F)(F)F)c2=O)cn1` [Compound 198, 2-amino-6-(6-methoxypyridin-3-yl)-4-methyl-8-(2,2,2-trifluoroethyl)pyrido[2,3-d]pyrimidin-7(8H)-one], the pIC50 in assay [1] is 6.58; against PI3-Kα, 6.89.

Take `Cc1nc(N)nc2c1cc(-c1cn[nH]c1)c(=O)n2C1CCOCC1` [Compound 199, 2-amino-4-methyl-6-(1H-pyrazol-4-yl)-8-(tetrahydro-2H-pyran-4-yl)pyrido[2,3-d]pyrimidin-7(8H)-one]: the pIC50 in assay [1] was 7.70; on PI3-Kα, 7.73.

Turning to `Cc1nc(N)nc2c1cc(-c1cnc3[nH]ccc3c1)c(=O)n2C1CCOCC1` [Compound 201, 2-amino-4-methyl-6-(1H-pyrrolo[2,3-b]pyridin-5-yl)-8-(tetrahydro-2H-pyran-4-yl)pyrido[2,3-d]pyrimidin-7(8H)-one], the pIC50 in assay [1] is 7.82; against PI3-Kα, 8.43.

For `Cc1nc(N)nc2c1cc(Br)c(=O)n2C1CCOC1` (centres unmarked) [Compound 202, 2-amino-6-bromo-4-methyl-8-(tetrahydrofuran-3-yl)pyrido[2,3-d]pyrimidin-7(8H)-one], the pIC50 in assay [1] was 5.78; against PI3-Kα it was 6.64.

For `Cc1nc(N)nc2c1cc(-c1cn[nH]c1)c(=O)n2C1CCOC1` (centres unmarked) [Compound 203], the pIC50 in assay [1] was 7.59; on PI3-Kα, 7.70.

Regarding `Cc1nc(N)nc2c1cc(-c1cnc3[nH]ccc3c1)c(=O)n2C1CCC1` [Compound 207, 2-amino-8-cyclobutyl-4-methyl-6-(1H-pyrrolo[2,3-d]pyridin-5-yl)pyrido[2,3-d]pyrimidin-7(8H)-one], the negative logarithm of the IC50 (pIC50) was 7.92 in assay [1] and 8.70 against PI3-Kα.

In the case of `COc1ccc(-c2cc3c(C)nc(N)nc3n(C(C)C)c2=O)cn1` [Compound 209, 2-amino-8-isopropyl-6-(6-methoxypyridin-3-yl)-4-methylpyrido[2,3-d]pyrimidin-7(8H)-one], the pIC50 is 7.19 in assay [1] and 7.96 against PI3-Kα.

Consider `Cc1nc(N)nc2c1cc(-c1cnc3[nH]ccc3c1)c(=O)n2C(C)C` [Compound 210, 2-amino-8-isopropyl-4-methyl-6-(1H-pyrrolo[2,3-d]pyridin-5-yl)pyrido[2,3-d]pyrimidin-7(8H)-one], for which the pIC50 in assay [1] was 8.17; against PI3-Kα, 8.64.

For the molecule `Cc1nc(N)nc2c1cc(-c1cnc3[nH]ccc3c1)c(=O)n2C1CC1` [Compound 213, 2-amino-8-cyclopropyl-4-methyl-6-(1H-pyrrolo[2,3-b]pyridin-5-yl)pyrido[2,3-d]pyrimidin-7(8H)-one], the pIC50 was 6.86 in assay [1] and 7.77 against PI3-Kα.

In the case of `CNc1nc(C)c2cc(Br)c(=O)n(CC3CCOC3)c2n1` (centres unmarked) [Compound 214, 6-bromo-4-methyl-2-(methylamino)-8-((tetrahydrofuran-3-yl)methyl)pyrido[2,3-d]pyrimidin-7(8H)-one], the results for the pIC50 (in assay [1]; on PI3-Kα) were 6.23 and 7.32, respectively.

Regarding `CNc1nc(C)c2cc(-c3cn[nH]c3)c(=O)n(CC3CCOC3)c2n1` (centres unmarked) [Compound 215, 4-methyl-2-(methylamino)-6-(1H-pyrazol-4-yl)-8-((tetrahydrofuran-3-yl)methyl)pyrido[2,3-d]pyrimidin-7(8H)-one], the pIC50 in assay [1] is 7.66; against PI3-Kα, 8.22.

Turning to `CNc1nc(C)c2cc(-c3ccc(OC)nc3)c(=O)n(CC3CCOC3)c2n1` (centres unmarked) [Compound 216, 6-(6-methoxypyridin-3-yl)-4-methyl-2-(methylamino)-8-((tetrahydrofuran-3-yl)methyl)pyrido[2,3-d]pyrimidin-7(8H)-one], the pIC50 in assay [1] was 7.34; against PI3-Kα, 8.34.

Turning to `CNc1nc(C)c2cc(-c3cnc4[nH]ccc4c3)c(=O)n(CC3CCOC3)c2n1` (centres unmarked) [Compound 217, 4-methyl-2-(methylamino)-6-(1H-pyrrolo[2,3-b]pyridin-5-yl)-8-((tetrahydrofuran-3-yl)methyl)pyrido[2,3-d]pyrimidin-7(8H)-one], the pIC50 in assay [1] was 7.87; on PI3-Kα, 8.80.

`Cc1nc(N)nc2c1cc(Br)c(=O)n2CC1CCOC1` (centres unmarked) [Compound 218, 2-amino-6-bromo-4-methyl-8-((tetrahydrofuran-3-yl)methyl)pyrido[2,3-d]pyrimidin-7(8H)-one]: the pIC50 in assay [1] was 5.99; on PI3-Kα, 7.03.

Regarding `Cc1nc(N)nc2c1cc(-c1cnc3[nH]ccc3c1)c(=O)n2CC1CCOC1` (centres unmarked) [Compound 221, 2-amino-4-methyl-6-(1H-pyrrolo[2,3-b]pyridin-5-yl)-8-((tetrahydrofuran-3-yl)methyl)pyrido[2,3-d]pyrimidin-7(8H)-one], the pIC50 in assay [1] was 7.24; against PI3-Kα, 8.55.

Regarding `Cc1nc(N)nc2c1cc(Br)c(=O)n2CC1CCCO1` (centres unmarked) [Compound 222, 2-amino-6-bromo-4-methyl-8-((tetrahydrofuran-2-yl)methyl)pyrido[2,3-d]pyrimidin-7(8H)-one], the figures for the pIC50 (in assay [1]; against PI3-Kα) were 5.67 and 7.00, respectively.

Take `COc1ccc(-c2cc3c(C)nc(N)nc3n(CC3CCCO3)c2=O)cn1` (centres unmarked) [Compound 224, 2-amino-6-(6-methoxypyridin-3-yl)-4-methyl-8-((tetrahydrofuran-2-yl)methyl)pyrido[2,3-d]pyrimidin-7(8H)-one]: the pIC50 was 6.92 in assay [1] and 7.68 against PI3-Kα.
